The target of the assay is T1, AR (Homo sapiens, UniProt P10275).
T1 construct: endogenous in cells; host or cells: VCaP cells
T1 sequence (P10275 1-920): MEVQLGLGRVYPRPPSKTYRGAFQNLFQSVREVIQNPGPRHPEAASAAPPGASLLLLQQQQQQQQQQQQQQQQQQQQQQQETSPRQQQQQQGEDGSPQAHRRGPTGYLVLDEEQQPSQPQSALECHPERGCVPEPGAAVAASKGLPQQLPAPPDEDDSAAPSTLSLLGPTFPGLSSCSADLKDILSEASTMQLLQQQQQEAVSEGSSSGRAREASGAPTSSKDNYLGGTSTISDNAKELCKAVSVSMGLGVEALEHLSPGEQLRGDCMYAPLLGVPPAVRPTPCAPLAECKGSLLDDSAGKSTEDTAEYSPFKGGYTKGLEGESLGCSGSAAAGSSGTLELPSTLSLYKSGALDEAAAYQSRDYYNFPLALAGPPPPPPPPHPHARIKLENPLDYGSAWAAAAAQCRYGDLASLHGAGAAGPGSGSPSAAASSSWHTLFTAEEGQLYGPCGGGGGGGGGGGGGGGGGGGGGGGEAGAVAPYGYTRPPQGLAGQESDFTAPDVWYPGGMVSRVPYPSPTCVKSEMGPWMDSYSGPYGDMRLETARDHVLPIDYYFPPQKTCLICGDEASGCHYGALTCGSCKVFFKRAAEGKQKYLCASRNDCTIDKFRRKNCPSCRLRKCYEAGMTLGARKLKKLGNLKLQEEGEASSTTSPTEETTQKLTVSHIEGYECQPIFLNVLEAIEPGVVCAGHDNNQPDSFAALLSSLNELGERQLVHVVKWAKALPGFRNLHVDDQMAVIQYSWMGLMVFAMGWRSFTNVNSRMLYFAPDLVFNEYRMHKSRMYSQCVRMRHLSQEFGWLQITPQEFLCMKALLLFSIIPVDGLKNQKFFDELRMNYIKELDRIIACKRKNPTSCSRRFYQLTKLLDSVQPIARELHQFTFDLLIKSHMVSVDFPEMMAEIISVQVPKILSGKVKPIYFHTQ
In words: VCAP AR Degradation Assay. It is filed as cell-based. As to conditions: VCaP cells, 24 h, AR ELISA; for DC50: concentration of compound when AR level = 50% of DMSO control (50% AR degradation); for Y: lowest measured AR level normalized to DMSO control (AR degradation efficiency). How it is done:
VCAP AR Degradation Assay. Test compounds were pre-dispensed into a Corning CellBind 96-well clear bottom plate (Cat #3300) using an acoustic dispenser to make a 10-point concentration series at 1:3 dilution for each compound. The final top concentration of each compound was 5 μM. DMSO at a final concentration of 0.1% was used as a control. VCaP cells cultured in DMEM with 8% fetal bovine serum (FBS) were seeded at 50K cells per well in a 200 μL volume into the compound plate and incubated at 37° C. in a CO2 incubator for 24 h. The medium was carefully removed from the cells and the plate was placed on ice. […] ice-cold 1× cell lysis buffer from Cell Signaling Technologies (Cat #9803) was added to each well of the cells and the plate was incubated at 4° C. on a shaker for 1 h. Fifteen μL of cell lysate was used for AR ELISA detection using a PathScan Total Sandwich AR ELISA kit (Cell Signaling Technology, Cat #12580). AR levels in compound-treated wells were normalized to that of DMSO control and expressed as percent of control (PoC) (y). A Four Parameter Logistic Model (Sigmoidal Dose-Response Model) was used to determine the compound's DC50, and EC50, using the following equation: y=(A+((B−A)/(1+((C/x)^D)))) • A=YMin (lowest AR level normalized to DMSO control in response to compound treatment, as determined by curve fit) • B=YMax (maximum AR level as determined by curve fit) • C=EC50 • D=Hill Slope • x=compound concentration • EC50=the concentration of compound when y=[…] • DC50=the concentration of the compound when y=50% of DMSO control (50% AR degradation) • y=AR protein level normalized to DMSO control
The lowest measured AR level normalized to DMSO control in response to compound treatment, termed Y value, was used to characterize the compound-mediated AR degradation efficiency.

Structures can show the parent of a compound that is named as a salt.

In the case of `C[C@@H]1C[C@H](OCC[C@H]2CC[C@H](N3C(=S)N(c4ccc(C#N)c(C(F)(F)F)c4)C(=O)C3(C)C)CC2)C[C@H](C)N1CC(=O)Nc1cccc2c(N3CCC(=O)NC3=O)nn(C)c12` [Cmpd 31, 2-((2R,4r,6S)-4-(2-((trans)-4-(3-(4-Cyano-3-(trifluoromethyl)phenyl)-5,5-dimethyl-4-oxo-2-thioxoimidazolidin-1-yl)cyclohexyl)ethoxy)-2,6-dimethylpiperidin-1-yl)-N-(3-(2,4-dioxotetrahydropyrimidin-1(2H)-yl)-1-methyl-1H-indazol-7-yl)acetamide], the DC50 was in the range of 2 to 10 nM and the Y entry was “** (20%<Y≤%)”.
For the compound `C[C@@H]1C[C@H](CCO[C@H]2CC[C@H](N3C(=S)N(c4ccc(C#N)c(C(F)(F)F)c4)C(=O)C3(C)C)CC2)C[C@H](C)N1CC(=O)Nc1cccc2c(N3CCC(=O)NC3=O)nn(C)c12` [Cmpd 14, 2-((2R,4r,6S)-4-(2-((trans-4-(3-(4-Cyano-3-(trifluoromethyl)phenyl)-5,5-dimethyl-4-oxo-2-thioxoimidazolidin-1-yl)cyclohexyl)oxy)ethyl)-2,6-dimethylpiperidin-1-yl)-N-(3-(2,4-dioxotetrahydropyrimidin-1(2H)-yl)-1-methyl-1H-indazol-7-yl)acetamide hydrochloride], the DC50 is 2 to 10 nM and the Y result is “* (0<Y≤20%)”.
`Cn1nc(N2CCC(=O)NC2=O)c2cccc(NC(=O)CN3CCN(CCC[C@H]4CC[C@H](N5C(=S)N(c6ccc(C#N)c(C(F)(F)F)c6)C(=O)C5(C)C)CC4)C[C@@H]3C(F)(F)F)c21` [Cmpd 23, 2-((R)-4-(3-(trans-4-(3-(4-cyano-3-(trifluoromethyl)phenyl)-5,5-dimethyl-4-oxo-2-thioxoimidazolidin-1-yl)cyclohexyl)propyl)-2-(trifluoromethyl)piperazin-1-yl)-N-(3-(2,4-dioxotetrahydropyrimidin-1(2H)-yl)-1-methyl-1H-indazol-7-yl)acetamide]: the DC50 is 2 to 10 nM and the Y entry is listed as “** (20%<Y≤%)”.
On to `C[C@@H]1CN(CCO[C@H]2CC[C@H](N3C(=S)N(c4ccc(C#N)c(Cl)c4)C(=O)C3(C)C)CC2)C[C@H](C)N1CC(=O)Nc1cccc2c(N3CCC(=O)NC3=O)nn(C)c12` [Cmpd 3, 2-((2R,6S)-4-(2-((trans-4-(3-(3-Chloro-4-cyanophenyl)-5,5-dimethyl-4-oxo-2-thioxoimidazolidin-1-yl)cyclohexyl)oxy)ethyl)-2,6-dimethylpiperazin-1-yl)-N-(3-(2,4-dioxotetrahydropyrimidin-1(2H)-yl)-1-methyl-1H-indazol-7-yl)acetamide hydrochloride], for which the DC50 fell in the range of 2 to 10 nM and the Y entry is listed as “*** (30%<Y<60%)”.
In the case of `Cn1nc(N2CCC(=O)NC2=O)c2cccc(NC(=O)CN3CCN(CCCO[C@H]4CC[C@H](N5C(=S)N(c6cnc(C#N)c(C(F)(F)F)c6)C(=O)C5(C)C)CC4)C[C@@H]3C(F)(F)F)c21` [Cmpd 24, 2-((R)-4-(3-(((trans)-4-(3-(6-cyano-5-(trifluoromethyl)pyridin-3-yl)-5,5-dimethyl-4-oxo-2-thioxoimidazolidin-1-yl)cyclohexyl)oxy)propyl)-2-(trifluoromethyl)piperazin-1-yl)-N-(3-(2,4-dioxotetrahydropyrimidin-1(2H)-yl)-1-methyl-1H-indazol-7-yl)acetamide], the DC50 is not above 2 nM and the Y entry is recorded as “* (0<Y≤20%)”.
In the same order, the values of `C[C@@H]1C[C@@H](CCO[C@H]2CC[C@H](N3C(=S)N(c4ccc(C#N)c(C(F)(F)F)c4)C(=O)C3(C)C)CC2)C[C@H](C)N1CC(=O)Nc1cccc2c(N3CCC(=O)NC3=O)nn(C)c12` [Cmpd 13, 2-((2R,4s,6S)-4-(2-((trans-4-(3-(4-Cyano-3-(trifluoromethyl)phenyl)-5,5-dimethyl-4-oxo-2-thioxoimidazolidin-1-yl)cyclohexyl)oxy)ethyl)-2,6-dimethylpiperidin-1-yl)-N-(3-(2,4-dioxotetrahydropyrimidin-1(2H)-yl)-1-methyl-1H-indazol-7-yl)acetamide hydrochloride] are 2 to 10 nM and “* (0<Y≤20%)”.
`C[C@@H]1CN(CCO[C@H]2CC[C@H](N3C(=S)N(c4cnc(C#N)c(Cl)c4)C(=O)C3(C)C)CC2)C[C@H](C)N1CC(=O)Nc1cccc2c(N3CCC(=O)NC3=O)nn(C)c12` [Cmpd 6, 2-((2R,6S)-4-(2-((trans-4-(3-(5-Chloro-6-cyanopyridin-3-yl)-5,5-dimethyl-4-oxo-2-thioxoimidazolidin-1-yl)cyclohexyl)oxy)ethyl)-2,6-dimethylpiperazin-1-yl)-N-(3-(2,4-dioxotetrahydropyrimidin-1(2H)-yl)-1-methyl-1H-indazol-7-yl)acetamide hydrochloride]: the DC50 was not above 2 nM and the Y entry is recorded as “* (0<Y≤20%)”.
The matching figures for `Cn1nc(N2CCC(=O)NC2=O)c2cccc(NC(=O)CN3CCN(CCCO[C@H]4CC[C@H](N5C(=S)N(c6ccc(C#N)c(C(F)(F)F)c6)C(=O)C5(C)C)CC4)C[C@@H]3C(F)(F)F)c21` [Cmpd 26, 2-((R)-4-(3-(((trans)-4-(3-(4-Cyano-3-(trifluoromethyl)phenyl)-5,5-dimethyl-4-oxo-2-thioxoimidazolidin-1-yl)cyclohexyl)oxy)propyl)-2-(trifluoromethyl)piperazin-1-yl)-N-(3-(2,4-dioxotetrahydropyrimidin-1(2H)-yl)-1-methyl-1H-indazol-7-yl)acetamide]: 2 to 10 nM and “* (0<Y≤20%)”.
Take `C[C@@H]1C[C@H](OCCC[C@H]2CC[C@H](N3C(=S)N(c4cnc(C#N)c(C(F)(F)F)c4)C(=O)C3(C)C)CC2)C[C@H](C)N1CC(=O)Nc1cccc2c(N3CCC(=O)NC3=O)nn(C)c12` [Cmpd 30, 2-((2R,4r,6S)-4-(3-((trans)-4-(3-(6-Cyano-5-(trifluoromethyl)pyridin-3-yl)-5,5-dimethyl-4-oxo-2-thioxoimidazolidin-1-yl)cyclohexyl)propoxy)-2,6-dimethylpiperidin-1-yl)-N-(3-(2,4-dioxotetrahydropyrimidin-1(2H)-yl)-1-methyl-1H-indazol-7-yl)acetamide]: the DC50 was 2 to 10 nM and the Y entry is reported as “* (0<Y≤20%)”.
Regarding `C[C@@H]1CN(CCO[C@H]2CC[C@H](N3C(=S)N(c4ccc(C#N)c(C(F)(F)F)c4)C(=O)C3(C)C)CC2)C[C@H](C)N1CC(=O)Nc1cccc2c(N3CCC(=O)NC3=O)nn(C)c12` [Cmpd 1, 2-((2S,6R)-4-(2-((trans-4-(3-(4-Cyano-3-(trifluoromethyl)phenyl)-5,5-dimethyl-4-oxo-2-thioxoimidazolidin-1-yl)cyclohexyl)oxy)ethyl)-2,6-dimethylpiperazin-1-yl)-N-(3-(2,4-dioxotetrahydropyrimidin-1(2H)-yl)-1-methyl-1H-indazol-7-yl)acetamide hydrochloride], the DC50 was 10 to 100 nM and the Y result is recorded as “*** (30%<Y<60%)”.
On to `C[C@@H]1C[C@H](OCCC[C@H]2CC[C@H](N3C(=S)N(c4ccc(C#N)c(C(F)(F)F)c4)C(=O)C3(C)C)CC2)C[C@H](C)N1CC(=O)Nc1cccc2c(N3CCC(=O)NC3=O)nn(C)c12` [Cmpd 29, 2-((2R,4r,6S)-4-(3-((trans)-4-(3-(4-Cyano-3-(trifluoromethyl)phenyl)-5,5-dimethyl-4-oxo-2-thioxoimidazolidin-1-yl)cyclohexyl)propoxy)-2,6-dimethylpiperidin-1-yl)-N-(3-(2,4-dioxotetrahydropyrimidin-1(2H)-yl)-1-methyl-1H-indazol-7-yl)acetamide], for which the DC50 lay in the range of 10 to 100 nM and the Y result is recorded as “* (0<Y≤20%)”.

The values are drawn from patent US11560371B2, “Cereblon binding compounds, compositions thereof, and methods of treatment therewith” (Celgene Corporation, priority 2020, dated 2023).
